Measured values as given in US11673883B2, “Heterocyclic compounds as immunomodulators” (Incyte Corporation, priority 2016, dated 2023).
pIC50: −log10 of the molar value.

target: PD-1/PD-L1 protein/protein interaction (Homo sapiens (Human), UniProt Q9NZQ7); experiment: PD-1/PD-L1 Homogeneous Time-Resolved Fluorescence (HTRF) Binding Assay; conditions: recombinant human PD-L1 (19-238) His-tag, human PD-1 (25-167) Fc tag; 25° C., PBS pH 7.4
Procedure: Example A. PD-1/PD-L1 Homogeneous Time-Resolved Fluorescence (HTRF) Binding Assay
The assays were conducted in a standard black 384-well polystyrene plate with a final volume of 20 μL. Inhibitors were first serially diluted in DMSO and then added to the plate wells before the addition of other reaction components. The final concentration of DMSO in the assay was 1%. The assays were carried out at 25° C. in the PBS buffer (pH 7.4) with 0.05% Tween-20 and 0.1% BSA. Recombinant human PD-L1 protein (19-238) with a His-tag at the C-terminus was purchased from AcroBiosystems (PD1-H5229). Recombinant human PD-1 protein (25-167) with Fc tag at the C-terminus was also purchased from AcroBiosystems (PD1-H5257). PD-L1 and PD-1 proteins were diluted in the assay buffer and […] was added to the plate well. Plates were centrifuged and proteins were preincubated with inhibitors for 40 minutes. The incubation was followed by the addition of 10 μL of HTRF detection buffer supplemented with Europium cryptate-labeled anti-human IgG (PerkinElmer-AD0212) specific for Fc and anti-His antibody conjugated to SureLight®-Allophycocyanin (APC, PerkinElmer-AD0059H). After centrifugation, the plate was incubated at 25° C. for 60 min. before reading on a PHERAstar FS plate reader (665 nm/620 nm ratio). Final concentrations in the assay were […], 10 nM PD-L1, 1 nM europium anti-human IgG and 20 nM anti-His-Allophycocyanin. IC50 determination was performed by fitting the curve of percent control activity versus the log of the inhibitor concentration using the GraphPad Prism 5.0 software.

PD-1/PD-L1 protein/protein interaction, sequence (Q9NZQ7 19-238): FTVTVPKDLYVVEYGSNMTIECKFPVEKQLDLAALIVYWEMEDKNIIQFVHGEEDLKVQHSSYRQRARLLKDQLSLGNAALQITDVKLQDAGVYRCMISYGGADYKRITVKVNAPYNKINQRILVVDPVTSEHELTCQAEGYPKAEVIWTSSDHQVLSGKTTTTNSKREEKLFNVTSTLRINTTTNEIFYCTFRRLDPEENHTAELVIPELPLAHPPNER

Compound | pIC50
N#Cc1c(-c2ccc3c(c2)OCCO3)cccc1N1CCC(N[C@H]2C[C@H](O)C2)CC1 [Example 18, 2-(2,3-dihydrobenzo[b][1,4]dioxin-6-yl)-6-(4-(trans-3-hydroxycyclobutylamino)piperidin-1-yl)benzonitrile] | ≥ 7.00
N#Cc1c(-c2ccc3c(c2)OCCO3)cccc1N1CCC(N[C@H]2CC[C@H](O)CC2)CC1 [Example 24, 2-(2,3-dihydrobenzo[b][1,4]dioxin-6-yl)-6-(4-(trans-4-hydroxycyclohexylamino)piperidin-1-yl)benzonitrile] | ≥ 7.00
Cc1c(-c2ccccc2)cccc1N1CCC(NC2CC(CO)C2)CC1 (centres unmarked) [Example 43, (3-(1-(2-methylbiphenyl-3-yl)piperidin-4-ylamino)cyclobutyl) methanol] | ≥ 7.00
N#Cc1c(-c2ccc3c(c2)OCCO3)cccc1N1CCC(NC2CC3(CCC3)C2)CC1 [Example 10, 2-(2,3-dihydrobenzo[b][1,4]dioxin-6-yl)-6-(4-(spiro[3.3]heptan-2-ylamino)piperidin-l-yl)benzonitrile] | ≥ 7.00
CO[C@H]1C[C@@H](NC2CCN(c3cccc(-c4ccc5c(c4)OCCO5)c3C#N)CC2)C1 [Example 14, 2-(2,3-dihydrobenzo[b][1,4]dioxin-6-yl)-6-(4-(cis-3-methoxycyclobutylamino)piperidin-1-yl)benzonitrile] | ≥ 7.00
Cc1c(-c2ccccc2)cccc1N1CCC(N[C@H]2C[C@H](O)C2)CC1 [Example 28, trans-3-(1-(2-methylbiphenyl-3-yl)piperidin-4-ylamino)cyclobutanol] | ≥ 7.00
Cc1c(-c2ccccc2)cccc1N1CCC(NC2CCC(C(=O)O)CC2)CC1 (single isomer, unassigned) [41 (peak 2), 4-(1-(2-methylbiphenyl-3-yl)piperidin-4-ylamino)cyclohexane-carboxylic acid] | ≥ 7.00
N#Cc1c(-c2ccc3c(c2)OCCO3)cccc1N1CCC(N[C@H]2C[C@@H](CO)C2)CC1 [Example 8, 2-(2,3-dihydrobenzo[b][1,4]dioxin-6-yl)-6-(4-(cis-3-(hydroxymethyl)cyclobutyl-amino)piperidin-l-yl)benzonitrile] | ≥ 7.00

Next, values leading:

pIC50 | Compound
≥ 7.00 | Cc1c(-c2ccccc2)cccc1N1CCC(N[C@H]2CC[C@H](O)CC2)CC1 [Example 30, trans-4-(1-(2-methylbiphenyl-3-yl)piperidin-4-ylamino)cyclohexanol]
≥ 7.00 | Cc1c(-c2ccccc2)cccc1N1CCC(NC2CC(C(=O)O)C2)CC1 (centres unmarked) [Example 45, 3-(1-(2-methylbiphenyl-3-yl)piperidin-4-ylamino)cyclobutane-carboxylic acid]
≥ 7.00 | Cc1c(-c2ccccc2)cccc1N1CCC(NC2CCCC2)CC1 [Example 37, N-cyclopentyl-1-(2-methylbiphenyl-3-yl)piperidin-4-amine]
≥ 7.00 | N#Cc1c(-c2ccc3c(c2)OCCO3)cccc1N1CCC(NCC2(CO)CC2)CC1 [Example 4, 2-(2,3-dihydrobenzo[b][1,4]dioxin-6-yl)-6-(4-((l-(hydroxymethyl)cyclopropyl)methylamino)piperidin-1-yl)benzonitrile]
≥ 7.00 | N#Cc1c(-c2ccc3c(c2)OCCO3)cccc1N1CCC(NC[C@@H]2CCCC[C@@H]2O)CC1 (relative stereo) [Example 19, 2-(2,3-dihydro-1,4-benzodioxin-6-yl)-6-[4-({[cis-2-hydroxycyclohexyl]methyl}amino)piperidin-1-yl]benzonitrile]
≥ 7.00 | Cc1c(-c2ccccc2)cccc1N1CCC(NC2CCCC(C(=O)O)C2)CC1 (single isomer, unassigned) [46 (peak 1), 3-(1-(2-methylbiphenyl-3-yl)piperidin-4-ylamino)cyclohexane carboxylic acid]
6.30 to 7.00 | CN(C)C1CCN(c2cccc(-c3ccc4c(c3)OCCO4)c2C#N)CC1 [Example 3, 2-(2,3-dihydrobenzo[b][1,4]dioxin-6-yl)-6-(4-(dimethylamino)piperidin-1-yl)benzonitrile]
≥ 7.00 | Cc1c(-c2ccccc2)cccc1N1CCC(NC2CCCC(C(=O)O)C2)CC1 (single isomer, unassigned) [46 (peak 2), 3-(1-(2-methylbiphenyl-3-yl)piperidin-4-ylamino)cyclohexane carboxylic acid]
≥ 7.00 | Cc1c(-c2ccccc2)cccc1N1CCC(NC2CCC(C#N)CC2)CC1 (single isomer, unassigned) [40 (peak 2), 4-(1-(2-methylbiphenyl-3-yl)piperidin-4-ylamino)cyclohexane carbonitrile]
≥ 7.00 | Cc1c(-c2ccccc2)cccc1N1CCC(NCCc2cnn(C)c2)CC1 [Example 31, N-(2-(1-methyl-1H-pyrazol-4-yl)ethyl)-1-(2-methylbiphenyl-3-yl)piperidin-4-amine]
≥ 7.00 | N#Cc1c(-c2ccc3c(c2)OCCO3)cccc1N1CCC(N[C@H]2C[C@@H](O)C2)CC1 [Example 1, 2-(2,3-dihydro-1,4-benzodioxin-6-yl)-6-{4-[(cis-3-hydroxycyclobutyl)amino]piperidin-1-yl}benzonitrile]
≥ 7.00 | C[C@@H]1CN(C2CCN(c3cccc(-c4ccc5c(c4)OCCO5)c3C#N)CC2)C[C@H]1CO (relative stereo) [Example 9, 2-(2,3-dihydrobenzo[b][1,4]dioxin-6-yl)-6-(4-(trans-3-(hydroxymethyl)-4-methylpyrrolidin-1-yl)piperidin-1-yl)benzonitrile]
